Measured values from ChEMBL document CHEMBL1681724, “Discovery of potent and orally bioavailable heterocycle-based cannabinoid CB1 receptor agonists” (Bioorg Med Chem Lett, 2011).
Converted amounts (≈) assume the structure as drawn.

Key:
Cannabinoid receptor 1 [1] = target: T1, Cannabinoid receptor 1 (Homo sapiens, UniProt P21554); assay: Agonist activity at human cannabinoid CB1 receptor expressed in CHO cells by luciferase reporter gene assay; type: functional, cell-based
[2] = Aqueous solubility of the compound at pH 7.4; type: physicochemical; conditions: aqueous medium
Cannabinoid receptor 1 [3] = target: T1, Cannabinoid receptor 1; assay: Displacement of [3H]CP55940 from human cannabinoid CB1 receptor expressed in insect Sf9 cells
Cannabinoid receptor 2 = Cannabinoid receptor 2 (Homo sapiens, UniProt P34972); assay: Displacement of [3H]CP55940 from human cannabinoid CB2 receptor expressed in insect Sf9 cells
Chain of Cannabinoid receptor 2 (P34972 whole entry): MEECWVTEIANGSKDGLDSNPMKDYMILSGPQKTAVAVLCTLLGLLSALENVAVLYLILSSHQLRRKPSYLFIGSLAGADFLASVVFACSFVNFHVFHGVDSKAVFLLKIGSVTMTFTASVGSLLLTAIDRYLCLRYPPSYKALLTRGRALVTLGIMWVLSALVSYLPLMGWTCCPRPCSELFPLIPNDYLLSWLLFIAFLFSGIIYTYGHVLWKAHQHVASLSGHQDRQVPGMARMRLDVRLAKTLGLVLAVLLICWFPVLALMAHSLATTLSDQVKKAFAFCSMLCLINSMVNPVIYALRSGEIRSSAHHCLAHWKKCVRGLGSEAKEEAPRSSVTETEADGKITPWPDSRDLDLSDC

[4] = Apparent permeability from apical to basolateral side of human Caco2 cells; type: ADME, cell-based; conditions: Caco-2
[5] = Apparent permeability from basolateral to apical side of human Caco2 cells; type: ADME, cell-based; conditions: Caco-2
[6] = AUC in rat plasma at 0.4 mg/kg, iv; type: ADME, organism-based; set-up: dose 0.4 mg/kg, route intravenous
[7] = Clearance in rat at 0.4 mg/kg, iv; type: ADME, organism-based; set-up: dose 0.4 mg/kg, route intravenous; conditions: in vivo
[8] = Half life in rat at 0.4 mg/kg, iv; type: ADME, organism-based; set-up: dose 0.4 mg/kg, route intravenous; conditions: in vivo
[9] = Volume of distribution at steady state in rat at 0.4 mg/kg, iv; type: ADME, organism-based; set-up: dose 0.4 mg/kg, route intravenous; conditions: in vivo, read-out: Vdss
[10] = AUC in rat plasma at 5 mg/kg, po; type: ADME, organism-based; set-up: dose 5 mg/kg, route oral
[11] = Cmax in rat at 5 mg/kg, po; type: ADME, organism-based; set-up: dose 5 mg/kg, route oral; conditions: in vivo
[12] = Tmax in rat at 5 mg/kg, po; type: ADME, organism-based; set-up: dose 5 mg/kg, route oral; conditions: in vivo
[13] = Oral bioavailability in rat at 5 mg/kg; type: ADME, organism-based; conditions: in vivo
[14] = Genotoxicity in Salmonella Typhimurium at 10^-4 M by Ames test; type: toxicity; conditions: salmonella enterica subsp. enterica serovar typhimurium, 100 µM

T1 sequence (P21554 whole entry): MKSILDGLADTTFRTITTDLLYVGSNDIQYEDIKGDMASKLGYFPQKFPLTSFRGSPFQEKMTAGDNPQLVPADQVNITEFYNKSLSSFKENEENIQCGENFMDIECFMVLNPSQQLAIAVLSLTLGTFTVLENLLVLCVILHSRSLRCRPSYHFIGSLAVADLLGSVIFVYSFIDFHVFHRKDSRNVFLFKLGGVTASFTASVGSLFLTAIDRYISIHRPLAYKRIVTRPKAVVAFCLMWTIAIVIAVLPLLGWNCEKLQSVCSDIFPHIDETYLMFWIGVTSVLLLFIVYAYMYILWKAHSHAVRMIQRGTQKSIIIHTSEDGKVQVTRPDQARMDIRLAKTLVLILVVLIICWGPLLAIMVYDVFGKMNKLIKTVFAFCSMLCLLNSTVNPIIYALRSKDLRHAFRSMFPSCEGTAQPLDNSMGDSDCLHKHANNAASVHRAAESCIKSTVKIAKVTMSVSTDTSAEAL

COCCN(C)Cc1nc(-c2cn(CC3CCOCC3)c3c(Cl)cccc23)ns1
EC50 (Cannabinoid receptor 1 [1]): 79.4 nM | solubility [2]: < 1 µg/mL

Clc1cccc2c(-c3nsc(CN4CCCC4)n3)cn(CC3CCCCC3)c12
EC50 (Cannabinoid receptor 1 [1]): 15.8 nM | solubility [2]: < 1 µg/mL

Clc1cccc2c(-c3nsc(CN4CCCC4)n3)cn(CC3CCOCC3)c12
solubility [2]: < 1 µg/mL

CC(=O)N[C@@H]1CCN(Cc2nc(-c3cn(CC4CCOCC4)c4c(Cl)cccc34)ns2)C1
EC50 (Cannabinoid receptor 1 [1]): 794 nM | solubility [2]: 16 µg/mL (≈ 33.8 µM)

OC[C@H]1CCCN1Cc1nc(-c2cn(CC3CCOCC3)c3c(Cl)cccc23)ns1
EC50 (Cannabinoid receptor 1 [1]): 15.8 nM | solubility [2]: < 1 µg/mL

O=C(O)C1CCCN1Cc1nc(-c2cn(CC3CCOCC3)c3c(Cl)cccc23)ns1 (stereo not drawn)
EC50 (Cannabinoid receptor 1 [1]): 158 nM | solubility [2]: 108 µg/mL (≈ 234 µM)

NC(=O)CNC(=O)[C@@H]1CCCN1Cc1nc(-c2cn(CC3CCOCC3)c3c(Cl)cccc23)ns1
EC50 (Cannabinoid receptor 1 [1]): 398 nM | solubility [2]: 15 µg/mL (≈ 29 µM)

CN(CCO)Cc1nc(-c2cn(CC3CCOCC3)c3c(Cl)cccc23)ns1
EC50 (Cannabinoid receptor 1 [1]): 79.4 nM | solubility [2]: < 1 µg/mL

COCCN(Cc1nc(-c2cn(CC3CCOCC3)c3c(Cl)cccc23)ns1)S(C)(=O)=O
solubility [2]: < 1 µg/mL

CS(=O)(=O)N(CCO)Cc1nc(-c2cn(CC3CCOCC3)c3c(Cl)cccc23)ns1
solubility [2]: < 1 µg/mL

COCCN(C)Cc1nc(-c2cn(CC3CCS(=O)(=O)CC3)c3c(Cl)cccc23)ns1
EC50 (Cannabinoid receptor 1 [1]): 200 nM | solubility [2]: < 1 µg/mL

Clc1cccc2c(-c3noc(CN4CCCC4)n3)cn(CC3CCOCC3)c12
EC50 (Cannabinoid receptor 1 [1]): 100 nM | solubility [2]: < 1 µg/mL

CN(CC(N)=O)Cc1nc(-c2cn(CC3CCOCC3)c3c(Cl)cccc23)no1
solubility [2]: 21 µg/mL (≈ 50.3 µM) | Ki (Cannabinoid receptor 1 [3]): 3.98 nM | Ki (Cannabinoid receptor 2): 6.31 nM | Papp A→B [4]: 8.3 ×10⁻⁶ cm/s | Papp B→A [5]: 12.7 ×10⁻⁶ cm/s | AUC [6]: 244 ng·h/mL | clearance [7]: 28 mL/min/kg | half-life [8]: 1.4 h | Vd [9]: 3 L/kg | AUC [10]: 1570 ng·h/mL | Cmax [11]: 173 ng/mL | Tmax [12]: 1 h | bioavailability [13]: 53% | Activity [14]: Non-toxic

CN(CC(=O)NCCO)Cc1nc(-c2cn(CC3CCOCC3)c3c(Cl)cccc23)no1
solubility [2]: 88 µg/mL (≈ 190 µM)

CN(Cc1nc(-c2cn(CC3CCOCC3)c3c(Cl)cccc23)no1)[C@@H](CO)C(N)=O
EC50 (Cannabinoid receptor 1 [1]): 251 nM | solubility [2]: 95 µg/mL (≈ 212 µM)

O=C(NCCO)C1CCN(Cc2nc(-c3cn(CC4CCOCC4)c4c(Cl)cccc34)no2)CC1
EC50 (Cannabinoid receptor 1 [1]): 126 nM | solubility [2]: 115 µg/mL (≈ 229 µM)

COCC(=O)NCc1nc(-c2cn(CC3CCOCC3)c3c(Cl)cccc23)no1
solubility [2]: 4 µg/mL (≈ 9.55 µM)

CCNC(=O)NCc1nc(-c2cn(CC3CCOCC3)c3c(Cl)cccc23)no1
EC50 (Cannabinoid receptor 1 [1]): 2000 nM | solubility [2]: < 1 µg/mL

CN(C)S(=O)(=O)N(C)Cc1nc(-c2cn(CC3CCOCC3)c3c(Cl)cccc23)no1
EC50 (Cannabinoid receptor 1 [1]): 31.6 nM | solubility [2]: < 1 µg/mL

CC(C)N(CCO)Cc1csc(-c2c(CC3CCOCC3)[nH]c3c(Cl)cccc23)n1
EC50 (Cannabinoid receptor 1 [1]): ≤ 100 nM | solubility [2]: > 10 µg/mL | bioavailability [13]: 4%
